Non-standard residues stand in square brackets, D forms with d. Residues, ends and D or L forms follow the SMILES beside them.
Experiments:
[1] = system: patient with portopulmonary hypertension; details: one case of portopulmonary hypertension; cited from earlier work
[2] = system: patients with early cirrhosis; details: cited from earlier work
patients with cirrhosis = details: administered through the hepatic artery, cited from earlier work
[3] = system: patients with portopulmonary hypertension; details: cited from earlier work
[4] = Pharmacokinetic analysis of ambrisentan plasma concentrations in the clinical study; format: in vivo, human; details: high dose group
Description: In the context of a clinical study (ClinicalTrials.gov Identifier: NCT03827200), ambrisentan was administered to 8 adult subjects with a history of cirrhosis and portal hypertension. […] A liquid formulation of ambrisentan was used, consisting of a solution of propylene glycol:ethanol (50:50 w/w) and ambrisentan at a concentration of 5 mg/mL. The solution was reconstituted prior to administration in water or propylene glycol. All subjects were treated for 14 days. Portal pressure was estimated in this study by means of the Hepatic Vein Pressure Gradient (HVPG), the current gold standard to evaluate the degree of portal hypertension in adults with cirrhosis (as described in Bosch, J., Abraldes, J. G., Berzigotti, A., & Garcia-Pagan, J. C. (2009). The clinical use of HVPG measurements in chronic liver disease. Nature Reviews Gastroenterology & Hepatology, 6(10), 573-582). HVPG was measured at baseline and prior to the first administration of ambrisentan. Post-baseline values for HVPG were obtained at 90 minutes following the administration of the first dose of ambrisentan. After 14 days of treatment, HVPG was determined at trough (prior to the last dose) and 90 minutes following the last dose of ambrisentan. Two dose groups were evaluated in this study. […]

[5] = system: adult subjects with a history of cirrhosis and portal hypertension; assay: Clinical study NCT03827200: portal pressure estimated by Hepatic Venous Pressure Gradient (HVPG); format: in vivo, human
Description: In the context of a clinical study (ClinicalTrials.gov Identifier: NCT03827200), ambrisentan was administered to 8 adult subjects with a history of cirrhosis and portal hypertension. […] A liquid formulation of ambrisentan was used, consisting of a solution of propylene glycol:ethanol (50:50 w/w) and ambrisentan at a concentration of 5 mg/mL. The solution was reconstituted prior to administration in water or propylene glycol. All subjects were treated for 14 days. Portal pressure was estimated in this study by means of the Hepatic Vein Pressure Gradient (HVPG), the current gold standard to evaluate the degree of portal hypertension in adults with cirrhosis (as described in Bosch, J., Abraldes, J. G., Berzigotti, A., & Garcia-Pagan, J. C. (2009). The clinical use of HVPG measurements in chronic liver disease. Nature Reviews Gastroenterology & Hepatology, 6(10), 573-582). HVPG was measured at baseline and prior to the first administration of ambrisentan. Post-baseline values for HVPG were obtained at 90 minutes following the administration of the first dose of ambrisentan. After 14 days of treatment, HVPG was determined at trough (prior to the last dose) and 90 minutes following the last dose of ambrisentan. Two dose groups were evaluated in this study. In the high dose group, 4 subjects were administered 50 μg ambrisentan on day 1 subcutaneously, followed by 100 μg of ambrisentan twice a day orally for 13 days, for a total daily dose of 200 μg. On day 14, subjects in the high dose group received a final dose of 50 μg ambrisentan subcutaneously. In the low dose group, 4 subjects were administered 10 μg ambrisentan on day 1 subcutaneously, followed by 14 μg of ambrisentan once a day orally for 13 days. On day 14, subjects in the low dose group received a final dose of 10 μg ambrisentan subcutaneously.
All subjects had portal hypertension as determined by HVPG at baseline (mean 19.7 mmHg, range 9-29 mmHg). […] An initial decrease in HVPG was apparent at 90 minutes post-administration in the low-dose group, and the reduction in HVPG was even larger at day 14 when compared to day 1 (Table 2).

For COc1ccccc1Oc1c(NS(=O)(=O)c2ccc(C(C)(C)C)cc2)nc(-c2ncccn2)nc1OCCO [bosentan], the “Portal pressure as measured by HVPG” value [1] is listed as “decrease” and the Pulmonary pressure [1] is listed as “decrease”.
In the case of CCCC[C@@H](NC(=O)[C@@H](Cc1cn(C(=O)OC)c2ccccc12)NC(=O)[C@H](CC(C)(C)C)NC(=O)N1[C@H](C)CCC[C@@H]1C)C(=O)O [BQ-788], the “Acute reduction of portal pressure as assessed by HVPG” value [2] is given as “did not show any acute reduction on portal pressure”.
In the case of CC(C)C[C@@H]1NC(=O)[C@@H](C(C)C)NC(=O)[C@@H]2CCCN2C(=O)[C@@H](CC(=O)O)NC(=O)[C@@H](Cc2c[nH]c3ccccc23)NC1=O [BQ-123] (cyclo(L[dW][dD]P[dV])), the “Reduction of portal pressure as determined by HVPG” value (patients with cirrhosis; acute) is given as 18%, the “Hepatic artery blood flow” value (patients with cirrhosis) is given as “significant increase” and the “Acute reduction of portal pressure as assessed by HVPG” value [2] is given as “did not show any acute reduction on portal pressure”.
In the case of CCCNS(=O)(=O)Nc1ncnc(OCCOc2ncc(Br)cn2)c1-c1ccc(Br)cc1 [macitentan], the 6-minute walking distance [3] is given as “no effect” and the “Portal pressure as determined by HVPG” value [3] is given as “not showing a significant difference”.
In the case of COC(c1ccccc1)(c1ccccc1)[C@H](Oc1nc(C)cc(C)n1)C(=O)O [ambrisentan], the “Steady-state trough ambrisentan plasma concentration” value ([4]; 100 μg twice daily orally for 13 days) is reported as “about 10 ng/mL”, the concentration at 2 h ([4]; human, plasma, subcutaneous, 50 μg at day 14, 2 hours post-administration) is reported as 18 ng/mL and the “Change in HVPG from baseline, percent change, mean” value (“Change … percent change, mean” below) ([5]; dose group 10/14 μg, N=4, Day 1, 90 m after first dose) is reported as −6.4%. The “Change … percent change, mean” value ([5]; dose group 10/14 μg, N=4, Day 14, 90 m after last dose) was −14.1%, the “Change … percent change, mean” value ([5]; dose group 10/14 μg, N=4, Day 14, trough (0 H)) was −9.2% and the “Change … percent change, mean” value ([5]; dose group 50/200 μg, N=4, Day 1, 90 m after first dose) was 4.8%. For the same molecule, the “Change … percent change, mean” value ([5]; dose group 50/200 μg, N=4, Day 14, 90 m after last dose) was 11.7% and the “Change … percent change, mean” value ([5]; dose group 50/200 μg, N=4, Day 14, trough (0 H)) was 9.2%.
